Source: patent publication US6423519B1, “Compositions and methods for inhibiting fungal growth” (GPC Biotech Inc., priority 1998, dated 2002)
pIC50: −log10 of the molar value. Read-outs that look alike come from different tables or passages of the source. Peptide text beside a SMILES is read from it.

Tests used:
human GGTase = human GGTase (Homo sapiens, UniProt P53609); assay: Human GGTase inhibition (Hu GG); assay type: biochemical
Excerpt: As described below, a variety of different compounds were synthesized and tested for inhibitory activity against human and Candida GGTase. Exemplary synthesis schemes for generating prenyltransferase inhibitors useful in the methods and compositions of the present invention are shown in FIGS. 1-56. Tables 1-5 provide Structure-Activity relationship (SAR) data for several different classes of prenyltransferase inhibitors.

Hu FT = Hu FT (Homo sapiens, UniProt P49356); assay: Human FT inhibition (Hu FT); assay type: biochemical; details: Table 3 Piperidine Analogs
C. albicans GGPTase = target: T1, C. albicans GGPTase (Candida albicans, UniProt Q8J224+Q9Y764); assay: biochemical
T1 sequence (Q9Y764 1-398): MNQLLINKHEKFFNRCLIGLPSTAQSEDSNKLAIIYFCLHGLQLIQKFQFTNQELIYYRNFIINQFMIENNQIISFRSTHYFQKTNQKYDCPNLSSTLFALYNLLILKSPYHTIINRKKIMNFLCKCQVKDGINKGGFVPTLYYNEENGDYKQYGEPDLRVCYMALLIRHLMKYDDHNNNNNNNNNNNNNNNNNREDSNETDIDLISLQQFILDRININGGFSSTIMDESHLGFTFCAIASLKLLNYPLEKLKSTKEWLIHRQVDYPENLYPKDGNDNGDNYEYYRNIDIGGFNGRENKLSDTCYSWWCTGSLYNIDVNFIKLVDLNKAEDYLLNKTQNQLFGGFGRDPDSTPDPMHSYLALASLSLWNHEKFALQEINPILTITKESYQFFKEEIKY
T1 sequence (Q8J224 1-306): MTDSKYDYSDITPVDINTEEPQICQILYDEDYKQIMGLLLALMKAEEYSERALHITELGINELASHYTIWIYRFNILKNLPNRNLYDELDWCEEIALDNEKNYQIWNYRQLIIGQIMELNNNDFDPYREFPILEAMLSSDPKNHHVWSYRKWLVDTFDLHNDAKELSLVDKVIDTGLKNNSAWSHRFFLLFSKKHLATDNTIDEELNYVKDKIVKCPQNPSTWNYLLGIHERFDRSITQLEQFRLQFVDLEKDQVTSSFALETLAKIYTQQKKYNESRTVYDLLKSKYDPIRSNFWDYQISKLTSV
Procedure: Plate test compounds (10 μL per well) at predetermined concentration in 50% DMSO. For background control (blank) and reaction control (negative), add 10 μL of 200 μM GGPP and 10 μL 50% DMSO, respectively. Prepare assay buffer: 50 mM Tris, pH7.5, 20 mM KCL, 5 mM MgCl2, 5 μM ZnCl2, 0.5 mM Zw(3-14), 2 mM DTT and 0.1 mg/mL BSA.
Add 20 μL of C. albicans GGPTase and ^3H-GGPP in assay buffer to test compound. Preincubate enzyme and ^3H-GGPP with test compound for 15 minutes at room temperature. Add 20 μL C. albicans Rho in assay buffer. Incubate for 30 minutes at room temperature. Final assay conditions are 2 nM C. albicans GGPTase, 250 nM ^3H-GGPP and 250 nM C. albicans Rho.
Add 100 μL 15 mM GGPP, 50 mM Tris, pH7.0 and 2% BSA to quench reaction. Transfer reaction to Nickel chelate FlashPlate. Allow his-tagged C. albcians Rho to capture onto plate. Rinse plate 1× with 200 μL 20 mM Tris, pH7.0. Read in TOPCOUNT.

[1] = Table 3 Piperidine Analogs, read-out: IC50 (nM) Hu GG
[2] = Table 3 Piperidine Analogs, read-out: IC50 (nM) Ca GG
[3] = Table 1, read-out: IC50 (nM) Hu GG
[4] = Table 1 Peptide Analogs, read-out: IC50 (nM) Hu GG
[5] = read-out: IC50 (nM) Ca GG, Table 1
[6] = Table 1, read-out: IC50 (nM) Ca GG
[7] = Table 1 Peptide Analogs, read-out: IC50 (nM) Ca GG
[8] = Table 5, read-out: IC50 (nM) Human
[9] = Table 5, read-out: IC50 (nM) Candida

IC50 (human GGTase; [1]) [nM]	IC50 (C. albicans GGPTase; [2]) [nM]	IC50 (human GGTase; [3]) [nM]	IC50 (human GGTase; [4]) [nM]	SMILES	pIC50 (C. albicans GGPTase)	other results
> 1000	< 10	–	–	N[C@@H](CS)C(=O)N1CCC(C(=O)N[C@@H]2C[C@H]2c2ccccc2)(c2ccccc2)CC1 (relative stereo) [Compound 53v]	–	IC50 (Hu FT): > 1000 nM
–	–	> 1000	> 1000	CC(C)C[C@H](NC(=O)[C@H](Cc1cccc2ccccc12)NC(=O)[C@@H](N)CNC(=O)[C@@H](N)CS)C(=O)O [Compound 5c] (HELM PEPTIDE1{[N[C@@H](CN[*:3])C(=O)[*:2]].[O=C([C@H](Cc1cccc2ccccc12)N[*:1])[*:2]].L}|PEPTIDE2{C}$PEPTIDE1,PEPTIDE2,1:R3-1:R2$$$V2.0)	–	IC50 (C. albicans GGPTase; [6]): < 1000 nM; IC50 (C. albicans GGPTase; [7]): < 1000 nM
–	–	< 500	< 500	CC(C)C[C@H](NC(=O)[C@H](Cc1cccc2ccccc12)NC(=O)CCNC(=O)[C@@H](N)CS)C(=O)O [Compound 5g] (HELM PEPTIDE1{C.[bAla].[O=C([C@H](Cc1cccc2ccccc12)N[*:1])[*:2]].L}$$$$V2.0)	–	IC50 (C. albicans GGPTase; [6]): < 1000 nM; IC50 (C. albicans GGPTase; [7]): < 1000 nM
–	–	< 500	< 500	CC(C)C[C@H](NC(=O)[C@H](Cc1cccc2ccccc12)NC(=O)C[C@@H](NC(=O)[C@@H](N)CS)C(N)=O)C(=O)O [Compound 5h] (HELM PEPTIDE1{[O=C([C@H](Cc1cccc2ccccc12)N[*:1])[*:2]].L}|PEPTIDE2{C.[dD].[am]}$PEPTIDE1,PEPTIDE2,1:R1-2:R3$$$V2.0)	–	IC50 (C. albicans GGPTase; [6]): < 1000 nM; IC50 (C. albicans GGPTase; [7]): < 1000 nM
–	–	< 100	< 100	CC(C)C[C@H](NC(=O)[C@H](Cc1ccc2ccccc2c1)NC[C@@H](NC[C@@H](N)CS)C(C)C)C(=O)O [Compound 9]	–	IC50 (human GGTase; [8]): < 100 nM; IC50 (C. albicans GGPTase; [6]): < 1000 nM; IC50 (C. albicans GGPTase; [7]): < 1000 nM; IC50 (C. albicans GGPTase; [9]): < 1000 nM
–	–	–	–	CC(C)C[C@H](NC(=O)c1ccc(NC[C@@H](N)CS)cc1-c1ccccc1)C(=O)O [Compound 17]	–	IC50 (human GGTase; [8]): < 10 nM; IC50 (C. albicans GGPTase; [9]): < 10 nM
–	–	–	–	CC(C)C[C@@H](C(=O)O)N(C)C(=O)c1ccc(NC[C@@H](N)CS)cc1-c1ccccc1 [Compound 19]	–	IC50 (human GGTase; [8]): < 10 nM; IC50 (C. albicans GGPTase; [9]): < 10 nM
< 100	< 100	–	–	CC(C)C[C@H](NC(=O)C1(c2ccccc2)CCN(C(=O)[C@@H](N)CS)CC1)C(=O)O [Compound 53a]	–	–
> 1000	< 100	–	–	N[C@@H](CS)C(=O)N1CCC(C(=O)NCCCCc2ccccc2)(c2ccccc2)CC1 [Compound 53aa]	–	–
< 1000	< 100	–	–	N[C@@H](CS)C(=O)N1CCC(C(=O)NCc2ccccc2-c2ccccc2)(c2ccccc2)CC1 [Compound 53b]	–	–
> 1000	< 100	–	–	N[C@@H](CS)C(=O)N1CCC(C(=O)NCc2ccccc2)(c2ccccc2)CC1 [Compound 53bb]	–	–
< 100	< 100	–	–	CC(C)CCNC(=O)C1(c2ccccc2)CCN(C(=O)[C@@H](N)CS)CC1 [Compound 53c]	–	–
> 1000	< 500	–	–	N[C@@H](CS)C(=O)N1CCC(C(=O)NCCc2cccs2)(c2ccccc2)CC1 [Compound 53d]	–	–
> 1000	> 1000	–	–	CCOC(=O)N1CCC(NC(=O)C2(c3ccccc3)CCN(C(=O)[C@@H](N)CS)CC2)CC1 [Compound 53l]	–	–
> 1000	> 1000	–	–	N[C@@H](CS)C(=O)N1CCC(C(=O)NCCc2ccc(S(N)(=O)=O)cc2)(c2ccccc2)CC1 [Compound 53m]	–	–
> 1000	< 500	–	–	N[C@@H](CS)C(=O)N1CCC(C(=O)NC2CCCCC2)(c2ccccc2)CC1 [Compound 53s]	–	–
> 1000	< 100	–	–	N[C@@H](CS)C(=O)N1CCC(C(=O)NCC2CCCO2)(c2ccccc2)CC1 (some centres unmarked) [Compound 53t]	–	–
< 500	< 100	–	–	N[C@@H](CS)C(=O)N1CCC(C(=O)NCC(c2ccccc2)c2ccccc2)(c2ccccc2)CC1 [Compound 53y]	–	–
–	–	–	–	N[C@@H](CS)C(=O)N1CCC(C(=O)NCc2ccccc2)CC1 [Compound 59]	< 6.00	pIC50 (human GGTase): < 6.00
–	–	–	–	N[C@@H](CS)C(=O)N1CCC(C(=O)N(Cc2ccccc2)c2ccccc2)CC1 [Compound 60]	< 6.00	pIC50 (human GGTase): < 6.00
–	–	–	–	N[C@@H](CS)C(=O)N1CCC(C(=O)N(Cc2ccccc2)Cc2ccccc2)CC1 [Compound 61]	< 6.00	pIC50 (human GGTase): < 6.00
–	–	–	–	N[C@@H](CS)C(=O)N1CCC(C(=O)N(CCc2ccccc2)Cc2ccccc2)CC1 [Compound 62]	> 6.70	pIC50 (human GGTase): < 6.00
–	–	–	–	CC1(C(=O)NCc2ccccc2)CCN(C(=O)[C@@H](N)CS)CC1 [Compound 63]	> 6.30	pIC50 (human GGTase): < 6.00
–	–	–	–	N[C@@H](CS)C(=O)N1CCC(Cc2ccccc2)(C(=O)NCc2ccccc2)CC1 [Compound 64]	> 7.00	pIC50 (human GGTase): < 6.00
–	–	–	–	CC(C)/C=C1\NC(=O)N(C2(c3ccccc3)CCN(C(=O)C(N)CS)CC2)C1=O (centres unmarked) [Compound 70]	> 7.30	pIC50 (human GGTase): < 6.00
–	–	> 1000	> 1000	NC[C@H](NC(=O)[C@@H](N)CS)C(=O)NCc1ccc2c(c1)OCO2 [Compound 89d]	–	IC50 (C. albicans GGPTase; [6]): > 1000 nM; IC50 (C. albicans GGPTase; [7]): > 1000 nM
–	–	> 1000	> 1000	NC[C@H](NC(=O)[C@@H](N)CS)C(=O)NCC(=O)Nc1ccc2ccccc2c1 [Compound 89e] (HELM PEPTIDE1{C.[NC[C@H](N[*:1])C(=O)[*:2]].G.[c1ccc2cc(N[*:1])ccc2c1]}$$$$V2.0)	–	IC50 (C. albicans GGPTase; [6]): > 1000 nM; IC50 (C. albicans GGPTase; [7]): > 1000 nM
–	–	> 1000	> 1000	NC[C@H](NC(=O)[C@@H](N)CS)C(=O)N1CCC(Cc2ccccc2)CC1 [Compound 89f]	–	IC50 (C. albicans GGPTase; [6]): < 1000 nM; IC50 (C. albicans GGPTase; [7]): < 1000 nM
–	–	> 1000	> 1000	NC[C@H](NC(=O)[C@@H](N)CS)C(=O)N1CCN(C(c2ccc(F)cc2)c2ccc(F)cc2)CC1 [Compound 89g]	–	IC50 (C. albicans GGPTase; [6]): < 500 nM; IC50 (C. albicans GGPTase; [7]): < 500 nM
> 1000	> 1000	–	–	CC(C)C[C@@H](C(=O)O)N(C)C(=O)Cn1c(=O)n(C2CCN(C(=O)[C@@H](N)CS)CC2)c2ccccc21 [Compound 93]	–	–

SMILES	IC50 (human GGTase; [1]) [nM]	IC50 (C. albicans GGPTase; [2]) [nM]	IC50 (human GGTase; [3]) [nM]	IC50 (human GGTase; [4]) [nM]	pIC50 (C. albicans GGPTase)	other results
CC(C)C[C@H](NC(=O)[C@H](Cc1cccc2ccccc12)NC(=O)[C@H](CCO)NC(=O)[C@@H](N)CS)C(=O)O [Compound 5a] (HELM PEPTIDE1{C.[O=C([C@H](CCO)N[*:1])[*:2]].[O=C([C@H](Cc1cccc2ccccc12)N[*:1])[*:2]].L}$$$$V2.0)	–	–	< 500	< 500	> 6.30	–
CC(C)C[C@H](NC(=O)[C@H](Cc1cccc2ccccc12)NC(=O)[C@H](CN)NC(=O)[C@@H](N)CS)C(=O)O [Compound 5b] (HELM PEPTIDE1{C.[NC[C@H](N[*:1])C(=O)[*:2]].[O=C([C@H](Cc1cccc2ccccc12)N[*:1])[*:2]].L}$$$$V2.0)	–	–	< 500	< 500	> 8.00	IC50 (C. albicans GGPTase; [5]): < 10 nM
CC(C)C[C@H](NC(=O)[C@H](Cc1cccc2ccccc12)NC(=O)[C@H](CC(=O)O)NC(=O)[C@@H](N)CS)C(=O)O [Compound 5d] (HELM PEPTIDE1{C.D.[O=C([C@H](Cc1cccc2ccccc12)N[*:1])[*:2]].L}$$$$V2.0)	–	–	> 1000	> 1000	< 6.00	IC50 (C. albicans GGPTase; [5]): > 1000 nM
CC(C)C[C@H](NC(=O)[C@H](Cc1cccc2ccccc12)NC(=O)CNC(=O)[C@@H](N)CS)C(=O)O [Compound 5i] (HELM PEPTIDE1{C.G.[O=C([C@H](Cc1cccc2ccccc12)N[*:1])[*:2]].L}$$$$V2.0)	–	–	< 500	< 500	> 6.30	–
CC(C)C[C@H](NC(=O)C1(c2ccccc2)CCN(C(=O)[C@@H](N)CS)CC1)C(=O)N[C@@H](C)C(=O)N[C@@H](C)C(=O)O [Compound 99b] (HELM PEPTIDE1{C.[O=C(C1(c2ccccc2)CCN([*:1])CC1)[*:2]].L.A.A}$$$$V2.0)	> 500	< 200	–	–	–	–
